Measured values: US20050137135A1 (priority 2002, published 2005)
Square brackets hold non-standard residues; d marks the D form. Ends that are not written are not given here. Peptide text beside a SMILES is read from it. Ahx = NCCCCCC(=O)O

Assays:
[1] = molecular target: T1, rat pancreatic islet (wild type) GIP-receptor (Rattus norvegicus, UniProt P43219); experiment: biochemical; format: binding; conditions: for Receptor Binding % Displacement at 10 μM: 10 μM peptide, 125I-GIP; for inhibition at 20 µM: read-out: Receptor Binding % Displacement at 20 μM; for Percent displacement of 125I-GIP from wtGIPR cells: 50 micromolar peptide analogue, FIG. 9
T1 construct: expressed in transfected cells; host or cells: CHO-K1 (Chinese hamster ovary)
T1 sequence (P43219 19-455): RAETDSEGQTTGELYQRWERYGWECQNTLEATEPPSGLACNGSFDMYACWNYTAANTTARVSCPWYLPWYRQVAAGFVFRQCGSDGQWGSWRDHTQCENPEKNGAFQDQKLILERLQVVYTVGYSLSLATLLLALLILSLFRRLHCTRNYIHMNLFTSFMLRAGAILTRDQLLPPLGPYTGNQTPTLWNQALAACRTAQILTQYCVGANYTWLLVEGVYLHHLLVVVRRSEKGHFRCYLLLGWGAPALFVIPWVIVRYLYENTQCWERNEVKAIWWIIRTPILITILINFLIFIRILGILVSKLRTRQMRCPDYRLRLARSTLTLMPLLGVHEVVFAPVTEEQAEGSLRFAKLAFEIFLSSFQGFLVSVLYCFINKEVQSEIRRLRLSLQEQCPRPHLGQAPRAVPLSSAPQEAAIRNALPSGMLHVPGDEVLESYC
Experimental: (§1) Cells were cultured in DMEM/F12, supplemented with 10% newborn calf serum, 50 units/ml penicillin G, and 50 μg/ml streptomycin (Culture media and antibiotics from Gibco BRL, Life Technologies). Cells were grown in 75 cm^2 flasks until 80-90% confluent, when they were split and seeded onto 24 well plates at a density of 50,000 cells/well. Experiments were carried out 48 h later.
Binding studies using ^125I-labeled spGIP1-42, purified by high performance liquid chromatography (HPLC), were performed essentially as described previously-[21]. wtGIP-R1 Cells (1-5×10^5/well) were washed twice at 4° C. in binding buffer (BB), consisting of DMEM/F12 (GIBCO), 15 mM HEPES, 0.1% bovine serum albumin (BSA), 1% Trasylol (aprotinin; Bayer), pH 7.4. They were incubated for 12-16 h at 4° C. with ^125I-spGIP (50,000 cpm) in the presence or absence of unlabeled GIP1-42 or analogue. Following incubation, cells were washed twice with ice cold buffer, solubilized with 0.1 M NaOH (1 ml), and transferred to culture tubes for counting of cell-associated radioactivity. Nonspecific binding was defined as that measured in the presence of 1 μM GIP1-42 or GIP1-30, and specific binding expressed as % of binding in the absence of competitor (% B/Bo).

[2] = molecular target: T1, rat pancreatic islet (wild type) GIP-receptor; experiment: cAMP production in CHO-K1 cells expressing the GIP-receptor (wtGIP-R1 cells); format: cell-based; conditions: for cAMP Production (Fold Basal) 10 μM: 10 μM peptide; for cAMP Production (Fold Basal) 10 μM / cAMP Production (Fold Basal) 20 μM: basal cyclic AMP = 2.737 ± 0.079 fmol/1000 cells; for cAMP Production (Fold Basal) 20 μM: 20 μM peptide; for cAMP Production Max. cAMP (Fold Basal): Table 3, cyclic AMP stimulated by 20 μM peptide if plateau levels were not achieved
Experimental: as §1
Cells were extracted with 70% ethanol and cAMP levels measured by radioimmunoassay (Biomedical Technologies, Stoughton, Mass.). Data are expressed as fmol/1000 cells or % maximal GIP1-42-stimulated cAMP production (inhibition experiments).

Row | Molecule | inhibition at 20 µM [1] | cAMP Production Max. cAMP (Fold Basal) [2] | other results
1 | 1-7NH2: GIP fragment 1-7 amide (YAEGTFI-NH2) | – | – | Receptor Binding % Displacement at 10 μM [1]: −6.1 ± 3.4%
2 | CC[C@H](C)[C@H](NC(=O)[C@H](CCCCN)NC(=O)[C@@H](N)CC(=O)O)C(=O)N[C@@H](Cc1c[nH]cn1)C(=O)N[C@@H](CCC(N)=O)C(=O)N[C@@H](CCC(N)=O)C(=O)N[C@@H](CC(=O)O)C(=O)N[C@@H](Cc1ccccc1)C(=O)N[C@H](C(=O)N[C@@H](CC(N)=O)C(=O)N[C@@H](Cc1c[nH]c2ccccc12)C(=O)N[C@@H](CC(C)C)C(=O)N[C@@H](CC(C)C)C(=O)N[C@@H](C)C(=O)N[C@@H](CCC(N)=O)C(=O)N[C@@H](CCCCN)C(=O)NCC(=O)N[C@@H](CCCCN)C(=O)N[C@@H](CCCCN)C(=O)N[C@@H](CC(N)=O)C(=O)N[C@@H](CC(=O)O)C(=O)N[C@@H](Cc1c[nH]c2ccccc12)C(=O)N[C@@H](CCCCN)C(=O)N[C@@H](Cc1c[nH]cn1)C(=O)N[C@@H](CC(N)=O)C(=O)N[C@H](C(=O)N[C@H](C(=O)N[C@@H](CCC(N)=O)C(=O)O)[C@@H](C)O)[C@@H](C)CC)C(C)C [15-42OH] | – | – | cAMP Production (Fold Basal) 10 μM [2]: 1.02 ± 0.10 Fold Basal; cAMP Production (Fold Basal) 20 μM [2]: 1.01 ± 0.03 Fold Basal
3 | CC(C)C[C@H](NC(=O)[C@H](CC(C)C)NC(=O)[C@H](Cc1c[nH]c2ccccc12)NC(=O)[C@H](CC(N)=O)NC(=O)[C@@H](NC(=O)[C@H](Cc1ccccc1)NC(=O)[C@H](CC(=O)O)NC(=O)[C@H](CCC(N)=O)NC(=O)[C@H](CCC(N)=O)NC(=O)CCCCCNC(=O)[C@H](Cc1ccccc1)NC(=O)[C@@H](NC(=O)CNC(=O)[C@H](CCC(=O)O)NC(=O)[C@H](C)NC(=O)[C@@H](N)Cc1ccc(O)cc1)[C@@H](C)O)C(C)C)C(=O)N[C@@H](C)C(=O)N[C@@H](CCC(N)=O)C(=O)N[C@@H](CCCCN)C(N)=O [GIP(1-6)(Ahx)1(19-30)NH2] (H-YAEGTF[Ahx]QQDFVNWLLAQK-NH2; N-terminus assumed) | 62 ± 4.3% | 95.9 ± 8.6 Fold Basal | –
4 | CC(C)C[C@H](NC(=O)[C@H](CC(C)C)NC(=O)[C@H](Cc1c[nH]c2ccccc12)NC(=O)[C@H](CC(N)=O)NC(=O)[C@@H](NC(=O)[C@H](Cc1ccccc1)NC(=O)[C@H](CC(=O)O)NC(=O)[C@H](CCC(N)=O)NC(=O)[C@H](CCC(N)=O)NC(=O)CCCCCNC(=O)CCCCCNC(=O)[C@H](Cc1ccccc1)NC(=O)[C@@H](NC(=O)CNC(=O)[C@H](CCC(=O)O)NC(=O)[C@H](C)NC(=O)[C@@H](N)Cc1ccc(O)cc1)[C@@H](C)O)C(C)C)C(=O)N[C@@H](C)C(=O)N[C@@H](CCC(N)=O)C(=O)N[C@@H](CCCCN)C(N)=O [GIP(1-6)(Ahx)2(19-30)NH2] (H-YAEGTF[Ahx][Ahx]QQDFVNWLLAQK-NH2; N-terminus assumed) | 75.3 ± 3.3% | 2.55 ± 0.84 Fold Basal | –
5 | CC(C)C[C@H](NC(=O)[C@H](CC(C)C)NC(=O)[C@H](Cc1c[nH]c2ccccc12)NC(=O)[C@H](CC(N)=O)NC(=O)[C@@H](NC(=O)[C@H](Cc1ccccc1)NC(=O)[C@H](CC(=O)O)NC(=O)[C@H](CCC(N)=O)NC(=O)[C@H](CCC(N)=O)NC(=O)CCCCCNC(=O)CCCCCNC(=O)CCCCCNC(=O)[C@H](Cc1ccccc1)NC(=O)[C@@H](NC(=O)CNC(=O)[C@H](CCC(=O)O)NC(=O)[C@H](C)NC(=O)[C@@H](N)Cc1ccc(O)cc1)[C@@H](C)O)C(C)C)C(=O)N[C@@H](C)C(=O)N[C@@H](CCC(N)=O)C(=O)N[C@@H](CCCCN)C(N)=O [GIP(1-6)(Ahx)3(19-30)NH2] (H-YAEGTF[Ahx][Ahx][Ahx]QQDFVNWLLAQK-NH2; N-terminus assumed) | 67.1 ± 1% | 13.5 ± 1.5 Fold Basal | –
6 | CC[C@H](C)[C@H](NC(=O)[C@H](CO)NC(=O)[C@H](Cc1ccc(O)cc1)NC(=O)[C@H](CC(=O)O)NC(=O)[C@H](CO)NC(=O)[C@@H](NC(=O)[C@H](Cc1ccccc1)NC(=O)[C@@H](NC(=O)CNC(=O)[C@H](CCC(=O)O)NC(=O)[C@H](C)NC(=O)[C@@H](N)Cc1ccc(O)cc1)[C@@H](C)O)[C@@H](C)CC)C(=O)N[C@@H](C)C(=O)N[C@@H](CCSC)C(=O)NCCCCCC(=O)N[C@@H](CCC(N)=O)C(=O)N[C@@H](CCC(N)=O)C(=O)N[C@@H](CC(=O)O)C(=O)N[C@@H](Cc1ccccc1)C(=O)N[C@H](C(=O)N[C@@H](CC(N)=O)C(=O)N[C@@H](Cc1c[nH]c2ccccc12)C(=O)N[C@@H](CC(C)C)C(=O)N[C@@H](CC(C)C)C(=O)N[C@@H](C)C(=O)N[C@@H](CCC(N)=O)C(=O)N[C@@H](CCCCN)C(N)=O)C(C)C [GIP(1-14)(Ahx)1(19-30)NH2] (H-YAEGTFISDYSIAM[Ahx]QQDFVNWLLAQK-NH2; N-terminus assumed) | 86.1 ± 1.9% | 102.1 ± 5.0 Fold Basal | –
7 | CC[C@H](C)[C@H](NC(=O)[C@H](CO)NC(=O)[C@H](Cc1ccc(O)cc1)NC(=O)[C@H](CC(=O)O)NC(=O)[C@H](CO)NC(=O)[C@@H](NC(=O)[C@H](Cc1ccccc1)NC(=O)[C@@H](NC(=O)CNC(=O)[C@H](CCC(=O)O)NC(=O)[C@H](C)NC(=O)[C@@H](N)Cc1ccc(O)cc1)[C@@H](C)O)[C@@H](C)CC)C(=O)N[C@@H](C)C(=O)N[C@@H](CCSC)C(=O)NCCCCCC(=O)NCCCCCC(=O)N[C@@H](CCC(N)=O)C(=O)N[C@@H](CCC(N)=O)C(=O)N[C@@H](CC(=O)O)C(=O)N[C@@H](Cc1ccccc1)C(=O)N[C@H](C(=O)N[C@@H](CC(N)=O)C(=O)N[C@@H](Cc1c[nH]c2ccccc12)C(=O)N[C@@H](CC(C)C)C(=O)N[C@@H](CC(C)C)C(=O)N[C@@H](C)C(=O)N[C@@H](CCC(N)=O)C(=O)N[C@@H](CCCCN)C(N)=O)C(C)C [GIP(1-14)(Ahx)2(19-30)NH2] (H-YAEGTFISDYSIAM[Ahx][Ahx]QQDFVNWLLAQK-NH2; N-terminus assumed) | 85.8 ± 1.6% | 95.9 ± 3.2 Fold Basal | –
8 | CC[C@H](C)[C@H](NC(=O)[C@H](CO)NC(=O)[C@H](Cc1ccc(O)cc1)NC(=O)[C@H](CC(=O)O)NC(=O)[C@H](CO)NC(=O)[C@@H](NC(=O)[C@H](Cc1ccccc1)NC(=O)[C@@H](NC(=O)CNC(=O)[C@H](CCC(=O)O)NC(=O)[C@H](C)NC(=O)[C@@H](N)Cc1ccc(O)cc1)[C@@H](C)O)[C@@H](C)CC)C(=O)N[C@@H](C)C(=O)N[C@@H](CCSC)C(=O)N[C@@H](CC(=O)O)C(=O)N[C@@H](CCCCN)C(=O)N[C@H](C(=O)N[C@@H](Cc1c[nH]cn1)C(=O)N[C@@H](CCC(N)=O)C(=O)N[C@@H](CCC(N)=O)C(=O)N[C@@H](CC(=O)O)C(=O)N[C@@H](Cc1ccccc1)C(=O)N[C@H](C(=O)N[C@@H](CC(N)=O)C(=O)N[C@@H](Cc1c[nH]c2ccccc12)C(=O)N[C@@H](CC(C)C)C(=O)N[C@@H](CC(C)C)C(=O)N[C@@H](C)C(=O)N[C@@H](CCC(N)=O)C(=O)N[C@@H](CCCCN)C(=O)NCC(=O)N[C@@H](CCCCN)C(=O)N[C@@H](CCCCN)C(=O)N[C@@H](CC(N)=O)C(=O)N[C@@H](CC(=O)O)C(=O)N[C@@H](Cc1c[nH]c2ccccc12)C(=O)N[C@@H](CCCCN)C(=O)N[C@@H](Cc1c[nH]cn1)C(=O)N[C@@H](CC(N)=O)C(=O)N[C@H](C(=O)N[C@H](C(=O)N[C@@H](CCC(N)=O)C(=O)O)[C@@H](C)O)[C@@H](C)CC)C(C)C)[C@@H](C)CC [GIP(1-42)OH, reference compound] | 100% | – | Receptor Binding % Displacement at 10 μM [1]: 100%
9 | KIRQQDFVNWLLAQK-NH2 [16-30NH2] | – | – | cAMP Production (Fold Basal) 10 μM [2]: 1.04 ± 0.06 Fold Basal; cAMP Production (Fold Basal) 20 μM [2]: 0.80 ± 0.02 Fold Basal
10 | YAAGTFISDYSIAM-OH [A3] | – | – | Percent displacement of 125I-GIP from wtGIPR cells [1]: unable to displace measurable
11 | YAEGAFISDYSIAM-OH [A5] | – | – | Percent displacement of 125I-GIP from wtGIPR cells [1]: unable to displace measurable
